In ChEMBL document CHEMBL1201862, “PubChem BioAssay data set” (2004):
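Briefly, cells in 96-well plates were exposed to five compound concentrations for 48 h, and endpoints were estimated by linear interpolation. Abbreviation: GI50, concentration required for 50% inhibition of growth.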 Calls of active or inactive are those of the source. Rule as the data show it: active = GI50 up to about 1.1 µM and inactive = higher.

Experiments:
Experiment in all cases: NCI-60 cell line screen, 48 h
[1] = system: DLD-1
[2] = system: DMS-114
[3] = system: DMS-273
[4] = system: HOP-18
[5] = system: KM-20L2
[6] = system: LXFL 529
[7] = system: M19-MEL
[8] = system: SNB-78
[9] = system: RXF 631

Row | SMILES | GI50 [1] | GI50 [2] | GI50 [3] | GI50 [4] | GI50 [5] | GI50 [6] | GI50 [7] | GI50 [8] | GI50 [9]
1 | Brc1ccc(-c2cc3c(cc2C2SCCS2)OCO3)cc1 | 31.5 µM (inactive) | 23.2 µM (inactive) | 35.6 µM (inactive) | 49.4 µM (inactive) | 26.7 µM (inactive) | 25.4 µM (inactive) | 41.7 µM (inactive) | 11.4 µM (inactive) | 
2 | CC(c1ccc2c(c1)CCC1C2CC2OC23CC=CC(=O)[C@]13C)C1C[C@]2(C)O[C@]2(C)[C@H](O)O1 (some centres undefined) |  | 0.429 µM (active) | 21.7 µM (inactive) |  | 34.8 µM (inactive) | 10.6 µM (inactive) | 34.4 µM (inactive) |  | 
3 | CN(C)CCn1cnc2ncccc2c1=O | > 100 µM (inactive) | 53.1 µM (inactive) | > 100 µM (inactive) |  | > 100 µM (inactive) | > 100 µM (inactive) | > 100 µM (inactive) | > 100 µM (inactive) | 
4 | CNC(=O)C1CCc2nnc(-c3ccccc3)n21 (centres undefined) | > 100 µM (inactive) | > 100 µM (inactive) | > 100 µM (inactive) | > 100 µM (inactive) | > 100 µM (inactive) | > 100 µM (inactive) | > 100 µM (inactive) | > 100 µM (inactive) | > 100 µM (inactive)
5 | COc1ccc(SS(=O)(=O)c2ccc(OC)cc2)cc1 | 21.9 µM (inactive) | 16 µM (inactive) |  | 22.5 µM (inactive) | 21.3 µM (inactive) | 17.7 µM (inactive) | 19.5 µM (inactive) | 53.7 µM (inactive) | 39 µM (inactive)
6 | COc1cc(NS(C)(=O)=O)ccc1Nc1c2ccccc2nc2ccccc12 [AMSACRINE] | 2.79 µM (inactive) | 0.184 µM (active) | 0.0659 µM (active) | 0.7 µM (active) | 1.45 µM (inactive) | 3.32 µM (inactive) | 1.89 µM (inactive) | 3.97 µM (inactive) | 0.509 µM (active)
7 | O=C(CC1(O)C(=O)Nc2ccccc21)c1ccc(F)cc1 (centres undefined) | > 100 µM (inactive) | > 100 µM (inactive) | > 100 µM (inactive) |  | > 100 µM (inactive) | > 100 µM (inactive) | > 100 µM (inactive) | > 100 µM (inactive) | 
8 | c1ccc(Nc2nnc(CSc3nc(-c4ccccc4)c(-c4ccccc4)[nH]3)s2)cc1 | 53.8 µM (inactive) | 27.5 µM (inactive) | 16.8 µM (inactive) |  | 26.7 µM (inactive) | 20.1 µM (inactive) | 15.3 µM (inactive) | 30.1 µM (inactive) | 
9 | CC(=O)O[C@H]1C(=O)[C@@]2(C)C(C(OC(=O)c3ccccc3)[C@]3(O)CC(OC(=O)C(O)C(NC(=O)c4ccccc4)c4ccc(C)cc4)C(C)=C1C3(C)C)[C@]1(OC(C)=O)CO[C@@H]1C[C@@H]2O (some centres undefined) | 0.186 µM (active) | 0.0197 µM (active) | 0.0123 µM (active) | 4.01 µM (inactive) | 0.031 µM (active) | 0.0199 µM (active) | 0.0195 µM (active) | 0.507 µM (active) | 
10 | COC(=O)C1CC/C(=N/c2ccc(C)cc2C)N1 (centres undefined) | > 100 µM (inactive) |  | > 100 µM (inactive) | > 100 µM (inactive) | > 100 µM (inactive) | > 100 µM (inactive) | > 100 µM (inactive) | > 100 µM (inactive) | > 100 µM (inactive)
11 | CC(=O)Oc1ccc2c(c1)C(=O)c1nc(C)c(C)nc1C2=O | 42.9 µM (inactive) | 34.8 µM (inactive) | > 73.8 µM (inactive) | > 83.2 µM (inactive) | 34 µM (inactive) | > 51.8 µM (inactive) | 4.61 µM (inactive) | 48.2 µM (inactive) | 30.5 µM (inactive)
12 | CC(C)=CC(=O)Cc1nc2ccc([N+](=O)[O-])cc2[nH]c1=O | 72.1 µM (inactive) | 51.3 µM (inactive) | > 100 µM (inactive) |  | > 100 µM (inactive) | 53.7 µM (inactive) | > 100 µM (inactive) | > 100 µM (inactive) | 
13 | COC(=O)C1=C(C=O)C2C=CC1C2 (centres undefined) | 27.9 µM (inactive) | > 57.7 µM (inactive) | > 44.2 µM (inactive) | 30.5 µM (inactive) | > 63 µM (inactive) | 21.1 µM (inactive) | > 45 µM (inactive) | 74.1 µM (inactive) | > 100 µM (inactive)
14 | Nc1nc(=O)n([C@@H]2CC[C@H](CO)O2)cc1F | > 100 µM (inactive) | > 100 µM (inactive) | > 100 µM (inactive) | > 100 µM (inactive) | > 100 µM (inactive) | > 100 µM (inactive) |  | > 100 µM (inactive) | 
15 | O=C(NC1CCCC1=O)c1ccccc1 (centres undefined) | > 100 µM (inactive) | > 100 µM (inactive) | > 100 µM (inactive) |  | > 100 µM (inactive) |  | > 100 µM (inactive) | > 100 µM (inactive) | > 100 µM (inactive)
16 | CCCCCCCCCCCCCCCC(=O)OCCOCCOCCOCCOCCOC(=O)CCCCCCCCCCCCCCC | > 100 µM (inactive) | > 100 µM (inactive) | > 100 µM (inactive) | > 100 µM (inactive) | > 100 µM (inactive) | > 100 µM (inactive) | > 100 µM (inactive) | > 100 µM (inactive) | > 100 µM (inactive)
17 | CC(C)(C)c1ccc2c(c1)S(=O)(=O)Nc1ccc(Cl)cc1NS(=O)(=O)c1cc(C(C)(C)C)ccc1OCCOCCOCCO2 | 85.7 µM (inactive) | 36.3 µM (inactive) | 56.8 µM (inactive) | > 100 µM (inactive) |  |  | 62.4 µM (inactive) | 30.6 µM (inactive) | 
18 | O=[N+]([O-])c1ccc(Cl)c(C2SCc3nc4ccccc4n32)c1 (centres undefined) | 45.8 µM (inactive) | 37 µM (inactive) | 22.9 µM (inactive) | 5.87 µM (inactive) |  | 34.8 µM (inactive) | 29.6 µM (inactive) | 34.6 µM (inactive) | 
19 | CN(C)/C(F)=P\C(F)(F)F (centres undefined) | > 100 µM (inactive) | > 100 µM (inactive) | > 100 µM (inactive) | > 100 µM (inactive) | > 100 µM (inactive) | > 100 µM (inactive) | > 100 µM (inactive) | > 100 µM (inactive) | 
20 | CC(=O)Nc1ccc(/C=C/C(=O)c2sc(-c3nc(C)c(C(=O)/C=C/c4ccc(NC(C)=O)cc4)s3)nc2C)cc1 | > 100 µM (inactive) | > 100 µM (inactive) | > 100 µM (inactive) |  | > 100 µM (inactive) | > 100 µM (inactive) | > 100 µM (inactive) | > 100 µM (inactive) | > 100 µM (inactive)
21 | O=C1NC(=O)C2C1C1C=C3c4ccccc4N(c4ccccc4)C32[C@H]2C(=O)NC(=O)[C@@H]12 (some centres undefined) | > 100 µM (inactive) | > 100 µM (inactive) | > 100 µM (inactive) | > 100 µM (inactive) | > 100 µM (inactive) | > 100 µM (inactive) | > 100 µM (inactive) | > 100 µM (inactive) | 
22 | CN(Cc1cnc2nc(N)nc(N)c2n1)c1ccc(C(=O)N[C@@H](CCC(=O)O)C(=O)O)cc1 [METHOTREXATE] | 0.0356 µM (active) | 0.0288 µM (active) | 0.0308 µM (active) | 15.9 µM (inactive) | 0.044 µM (active) | 0.0336 µM (active) | 0.424 µM (active) | 117 µM (inactive) | 
